These results are taken from ChEMBL document CHEMBL1151194, “Synthetic analogues of the microtubule-stabilizing agent (+)-discodermolide: preparation and biological activity” (J Nat Prod, 2004).

The subject of one assay is A549. Nature of the assay: Cytotoxicity against human A549 cells. Type of assay: functional, cell-based.
The test system of a further assay is P388. Nature of the assay: Cytotoxicity against mouse P388 cells. Type of assay: functional, cell-based.
The next assay relates to MCF7. Put plainly: Cytotoxicity against human MCF7 cells. Type of assay: functional, cell-based.
The nature of assay [1]: Cytotoxicity against human NCI/ADR cells. Type of assay: functional, cell-based. The settings on record: NCI/ADR-RES.
The next assay relates to PANC-1. Nature of the assay: Cytotoxicity against human PANC1 cells. Type of assay: functional, cell-based.
In a further assay the test system is Vero. Put plainly: Cytotoxicity against african green monkey Vero cells. It is filed as cell-based. The settings on record: Chlorocebus sabaeus.

Where only a bound is given, the exact number is not on record here.

By IC50 is commonly meant the concentration that inhibits the measured activity by half.

Take `C=C/C=C\[C@H](C)[C@H](OC(N)=O)[C@@H](C)[C@H](O)[C@@H](C)CC(=C)[C@H]1[C@H](C)[C@@H](O)[C@@H](C)[C@@H]1/C=C/C[C@@H]1OC(=O)[C@H](C)[C@@H](O)[C@H]1C`: the IC50 was found to be 100 nM with A549; 190 nM in the assay with P388; 130 nM with MCF7; 3.4 µM in assay [1]; 0.33 µM in the assay with PANC-1; 0.69 µM in the assay on Vero.

Consider `C=C/C=C\[C@H](C)[C@H](OC(N)=O)[C@@H](C)[C@H](O)[C@H](C)C[C@](C)(O)[C@H]1[C@H](C)[C@@H](O)[C@@H](C)[C@@H]1/C=C/C[C@@H]1OC(=O)[C@H](C)[C@@H](O)[C@H]1C` (relative stereo), for which the IC50 was more than 5000 nM with A549; 7650 nM in the assay on P388; 7350 nM in the assay on MCF7; more than 5 µM in assay [1]; more than 5 µM in the assay on PANC-1; 11.4 µM with Vero.

For `C=C/C=C\[C@H](C)[C@H](OC(N)=O)[C@@H](C)[C@H](O)[C@@H](C)C/C(C)=C\[C@H](C)[C@H]1O[C@H](C[C@@H]2OC(=O)[C@H](C)[C@@H](O)[C@H]2C)C=C[C@@H]1C`, the IC50 in the assay with A549 stood at 1460 nM; with P388, 1000 nM; in the assay with MCF7 it was 1800 nM; in assay [1], 4.4 µM; in the assay with PANC-1, 3.13 µM; with Vero, 3.65 µM.

Consider `C=C/C=C\[C@H](C)[C@H](OC(N)=O)[C@@H](C)[C@H](O)[C@@H](C)/C=C(\C)[C@H]1[C@H](C)[C@@H](O)[C@@H](C)[C@@H]1/C=C/C[C@@H]1OC(=O)[C@H](C)[C@@H](O)[C@H]1C`, for which the 50% inhibitory concentration (IC50) with A549 was 6640 nM; with P388, 2130 nM; in the assay on MCF7 it was 2100 nM; in assay [1], more than 5 µM; in the assay with PANC-1, 6.57 µM; with Vero it was 21.9 µM.

With `C=C/C=C\[C@H](C)[C@H](OC(N)=O)[C@@H](C)[C@H](O)[C@@H](C)C[C@@](C)(O)[C@H]1[C@H](C)[C@@H](O)[C@@H](C)[C@@H]1/C=C/C[C@@H]1OC(=O)[C@H](C)[C@@H](O)[C@H]1C` (mixture of isomers), the IC50 in the assay on A549 was 840 nM; with P388, 2420 nM; with MCF7 it was 2360 nM; in assay [1], more than 5 µM; in the assay with PANC-1 it was 3.03 µM; in the assay on Vero, 4.3 µM.

On to `C=C/C=C\[C@H](C)[C@H](OC(N)=O)[C@@H](C)[C@H](O)[C@@H](C)C/C(C)=C\[C@H](C)[C@@H](O)[C@@H](C)/C=C\[C@@H](O)C[C@@H]1OC(=O)[C@H](C)[C@@H](O)[C@H]1C` [DISERMOLIDE], for which the 50% inhibitory concentration (IC50) was 15 nM in the assay on A549; 33 nM with P388; 2.4 nM in the assay with MCF7; 0.017 µM in assay [1]; 0.049 µM in the assay with PANC-1; 30 µM in the assay with Vero.

Regarding `C=C/C=C\[C@H](C)[C@H](OC(N)=O)[C@@H](C)[C@H](O)[C@@H](C)C[C@](C)(O)[C@H]1[C@H](C)[C@@H](O)[C@@H](C)[C@@H]1/C=C/C[C@@H]1OC(=O)[C@H](C)[C@@H](O)[C@H]1C` (relative stereo), the IC50 with A549 is 2640 nM; in the assay with P388, 2090 nM; with MCF7 it was 1730 nM; in assay [1], more than 5 µM; with PANC-1, more than 5 µM; with Vero it was 16.6 µM.

In the case of `C=C/C=C\[C@H](C)[C@H](OC(N)=O)[C@@H](C)[C@H](O)[C@@H](C)C/C(C)=C\[C@H](C)[C@@H](O)[C@@H](C)/C=C\[C@@H](O)C[C@@H]1OC(=O)[C@H](C)[C@@H](O[Si](C)(C)C(C)(C)C)[C@H]1C`, the IC50 was determined as 1990 nM with A549; 790 nM in the assay with P388; 960 nM with MCF7; 2.8 µM in assay [1]; 2.65 µM with PANC-1; 0.42 µM with Vero.
